Measured values taken from US4357344A, “Polybutylbenzylphenols and benzyl-3,4-methylenedioxybenzenes in insect population control” (The United States of America as represented by the …, priority 1979, dated 1982).

Columns and labels:
Type in all cases: in vivo
[1] = system: flies (family Muscidae); experiment: Chemosterilancy tests (egg hatch and pupal development; Examples 6-9)
Description: The compound to be tested was administered in a standard fly food containing 6 parts of sugar, 6 parts of powdered non-fat dry milk, and 1 part of powdered egg yolk. Treated food was prepared by mixing an appropriate amount of a solution or suspension of CBCP in acetone with a batch of the food. The acetone was evaporated (4-6 hours) and the dry material was repulverized.
Chemosterilancy tests: If eggs were laid in the above tests, the cups were filled with water and stirred to break up the egg masses. A random sample of 100 eggs from each cup was collected and placed on a small piece of black cloth which was then laid on top of moist larva-rearing medium in a rearing container. Observations were made to determine percentage of egg hatch and pupal development.
The procedure outlined in Example 6 was followed using a Group II compound.
The procedure outlined in Example 6 was followed using Group III compounds. The results are summarized below:
The procedure outlined in Example 6 was followed substituting a Group IV compound for those of Group I. The table below provides a summary of results.

[2] = system: early fourth-stage larvae of the common malaria mosquito (Anopheles quadrimaculatus); experiment: Growth-inhibition tests on mosquito larvae; details: in water; corrected by Abbott's formula
Description: The compound to be tested was added to one liter of water until the final concentration thereof was a growth-inhibiting amount. Fifty early fourth-stage larvae of the common malaria mosquito (Anopheles quadrimaculatus) were placed on this water. Larval food was administered daily. Dead larvae and pupae were removed, counted, and discarded daily. Live pupae were removed, rinsed, and transferred to a cup of distilled water. The cup was placed in an emergence cage, and the emerging adults, if any, were maintained on a sugar-water diet.
The effectiveness of the compound in inhibiting growth was determined by adding the number of dead larvae and pupae and the number of adults that were dead, unable to complete eclosion, and malformed. This sum was corrected by Abbott's formula (to adjust for the number of larvae or pupae which would die naturally) and designated as the GI (growth inhibition). The results are expressed as GI-90, i.e., the concentration of growth inhibitor in ppm that would prevent and/or retard growth in 90% of the treated larvae.

[3] = system: flies (family Muscidae); experiment: Oviposition inhibition tests (treated fly food; Examples 6-9)
Description: The compound to be tested was administered in a standard fly food containing 6 parts of sugar, 6 parts of powdered non-fat dry milk, and 1 part of powdered egg yolk. Treated food was prepared by mixing an appropriate amount of a solution or suspension of CBCP in acetone with a batch of the food. The acetone was evaporated (4-6 hours) and the dry material was repulverized. Oviposition inhibition tests: Samples of treated food with a container of water were placed in cages containing 100 newly-emerged adult flies (family Muscidae). After the flies had been exposed to the treated diet for 6-7 days, 1/2 inch of moist standard fly larva-rearing medium (CSMA) in souffle cups was placed in the cages for oviposition. After 4-6 hours, the cup was removed and examined for eggs. […] The procedure outlined in Example 6 was followed using a Group II compound. The procedure outlined in Example 6 was followed using Group III compounds. The results are summarized below: The procedure outlined in Example 6 was followed substituting a Group IV compound for those of Group I. The table below provides a summary of results.

| SMILES | Egg hatch ([1]; 0.1% in food) | Pupal development ([1]; 0.1% in food) | GI-90 (concentration of growth inhibitor that would prevent and/or retard growth in 90% of the treated larvae) [2] | Mortality, parent generation ([3]; 0.1% in food) | Mortality, parent generation ([3]; 0.25% in food) | Egg hatch ([1]; 0.05% in food) | Pupal development ([1]; 0.05% in food) | Egg hatch ([1]; 0.25% in food) | Pupal development ([1]; 0.25% in food) | Mortality, parent generation ([3]; 0.05% in food) | Mortality, parent generation ([3]; 0.5% in food) | other results |
| --- | --- | --- | --- | --- | --- | --- | --- | --- | --- | --- | --- | --- |
| COc1ccc(Cc2ccc3c(c2)OCO3)c(OC)c1 [LL, (2,4-Dimethoxybenzyl)-3,4-methylenedioxybenzene] | 76% | 76% | 0.2 ppm | 0% | 60% | – | – | – | – | – | – | – |
| COc1c(C)cc(Cc2ccc3c(c2)OCO3)cc1C [JJ, (3,5-Dimethyl-4-methoxybenzyl)-3,4-methylenedioxybenzene] | 6% | 6% | 0.6 ppm | 0% | 0% | 70% | 70% | 0% | 0% | 0% | 70% | – |
| CCCCCOc1cc2c(cc1C(C)c1ccc(OC)cc1)OCO2 (stereo not drawn) [K, (α-methyl-4-methoxybenzyl)-3,4-methylenedioxy-6-n-pentoxybenzene] | 70% | 70% | 0.060 ppm | 0% | 0% | – | – | 0% | 0% | – | 0% | Egg hatch ([1]; 0.5% in food): 0%; Pupal development ([1]; 0.5% in food): 0%; Egg hatch ([1]; 1.0% in food): 0%; Pupal development ([1]; 1.0% in food): 0%; Mortality, parent generation ([3]; 1.0% in food): 0% |
| COc1ccc(C(C)c2cc3c(cc2OC)OCO3)cc1 (stereo not drawn) [H, (α-Methyl-4-methoxybenzyl)-3,4-methylenedioxy-6-methoxybenzene] | – | – | 0.5 ppm | – | – | – | – | – | – | – | – | Egg hatch ([1]; 0.01% in food): 14%; Pupal development ([1]; 0.01% in food): 14%; Egg hatch ([1]; 0.025% in food): 45%; Pupal development ([1]; 0.025% in food): 45%; Mortality, parent generation ([3]; 0.01% in food): 0%; Mortality, parent generation ([3]; 0.025% in food): 0% |
| CCCCCOc1cc2c(cc1C(C)c1ccccc1)OCO2 (stereo not drawn) [W, (α-Methylbenzyl)-3,4-methylenedioxy-6-n-pentoxybenzene] | – | – | 0.2 ppm | – | – | – | – | – | – | – | – | – |
| COc1ccc(Cc2ccc3c(c2)OCO3)cc1C [HH, (3-Methyl-4-methoxybenzyl)-3,4-methylenedioxybenzene] | 82% | 82% | – | 0% | 80% | – | – | – | – | – | – | – |
| CCOc1ccc(Cc2ccc3c(c2)OCO3)cc1C [II, (3-Methyl-4-ethoxybenzyl)-3,4-methylenedioxybenzene] | – | – | – | – | 0% | – | – | 50% | 50% | – | 80% | – |
| CCOc1cc2c(cc1Cc1ccc3c(c1)OCO3)OCO2 [NN, (3,4-methylenedioxy-6-ethoxybenzyl)-3,4-methylenedioxybenzene] | 0% | 0% | – | 0% | – | 2% | 2% | – | – | 0% | – | – |
| COc1ccc(Cc2cc3c(cc2OC)OCO3)cc1 [L, (4-Methoxybenzyl)-3,4-methylenedioxy-6-methoxybenzene] | 0% | 0% | – | 0% | 60% | 0% | 0% | – | – | 0% | – | Egg hatch ([1]; 0.01% in food): 91%; Pupal development ([1]; 0.01% in food): 91%; Mortality, parent generation ([3]; 0.01% in food): 0% |
| CCCCCOc1cc2c(cc1Cc1ccc(OC)cc1)OCO2 [R] | 31% | 31% | – | 0% | 0% | 76% | 76% | 0% | 0% | 0% | – | – |
